Measurements published in PMC10175918 (Communications Biology, 2023).

How the values were obtained:
[1] = biological target: T1, urotensin-II receptor (UTS2R) (Homo sapiens, UniProt Q9UKP6); assay: TGFα-shedding assay, concentration-response on UTS2R (endogenous G protein), with or without urantide; format: cell-based; settings: for UTS2R activation: TGFα-shedding, screening 10 μM and response curves (Fig. 1a, Supplementary Fig. 1a)
T1 construct: expressed in transfected cells; host or cells: HEK293A
T1 sequence (Q9UKP6 1-389): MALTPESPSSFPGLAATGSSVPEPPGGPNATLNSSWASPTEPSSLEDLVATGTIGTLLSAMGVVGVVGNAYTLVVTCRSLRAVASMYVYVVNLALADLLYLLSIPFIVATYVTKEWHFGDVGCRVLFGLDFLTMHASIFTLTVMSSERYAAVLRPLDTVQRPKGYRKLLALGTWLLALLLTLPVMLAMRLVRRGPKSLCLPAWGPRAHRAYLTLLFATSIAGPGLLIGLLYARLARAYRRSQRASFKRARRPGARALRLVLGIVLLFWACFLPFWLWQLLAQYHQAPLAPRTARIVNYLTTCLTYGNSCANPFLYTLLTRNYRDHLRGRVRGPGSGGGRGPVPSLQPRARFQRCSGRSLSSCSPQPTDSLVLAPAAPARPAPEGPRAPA

[2] = biological target: T2, FLAG-UTS2R (urotensin-II receptor) (human) (UniProt Q9UKP6)
T2 sequence: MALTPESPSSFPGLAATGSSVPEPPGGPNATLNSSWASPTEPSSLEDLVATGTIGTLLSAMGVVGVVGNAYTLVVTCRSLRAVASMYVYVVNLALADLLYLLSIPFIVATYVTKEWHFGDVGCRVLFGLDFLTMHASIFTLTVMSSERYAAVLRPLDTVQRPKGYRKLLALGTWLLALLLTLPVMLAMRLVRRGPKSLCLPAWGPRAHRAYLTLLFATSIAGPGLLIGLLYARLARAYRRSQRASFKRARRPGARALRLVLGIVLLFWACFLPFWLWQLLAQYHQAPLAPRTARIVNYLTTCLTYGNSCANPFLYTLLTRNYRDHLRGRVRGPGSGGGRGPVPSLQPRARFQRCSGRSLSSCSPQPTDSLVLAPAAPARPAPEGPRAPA

## CC(C)[C@H](NC(=O)[C@@H]1CSSC[C@H](NC(=O)[C@H](CC(=O)O)NC(=O)[C@@H]2CCCN2C(=O)[C@@H](NC(=O)[C@@H](N)CCC(=O)O)[C@@H](C)O)C(=O)N[C@@H](Cc2ccccc2)C(=O)N[C@@H](Cc2c[nH]c3ccccc23)C(=O)N[C@@H](CCCCN)C(=O)N[C@@H](Cc2ccc(O)cc2)C(=O)N1)C(=O)O [UT2]
[1]; WT UTS2R, without chimeric Gα protein, read-out: Emax
  Emax: 59 ± 0.7%
[1]; compound concentration Log10 (M) -7, without urantide, read-out: UTS2R activation (%AP-TGFα release)
  activation at 0.1 µM: 59.6%
[1]; compound concentration Log10 (M) -8, without urantide, read-out: UTS2R activation (%AP-TGFα release)
  activation at 0.01 µM: 60.1%
[1]; compound concentration Log10 (M) -9, without urantide, read-out: UTS2R activation (%AP-TGFα release)
  activation at 0.001 µM: 58.8%
[1]; compound concentration Log10 (M) -10, without urantide, read-out: UTS2R activation (%AP-TGFα release)
  activation at 0.0001 µM: 51.6%
[1]; compound concentration Log10 (M) -11, without urantide, read-out: UTS2R activation (%AP-TGFα release)
  activation at 10 pM: 18.4%

## N#C[C@@]1(c2ccc3c(N)ncnn23)O[C@H](CO)[C@@H](O)[C@H]1O [GS-441524]
[1]
  UTS2R activation: no effect on UTS2R activation

## C[C@H](NP(=O)(O)OC[C@H]1O[C@@](C#N)(c2ccc3c(N)ncnn23)[C@H](O)[C@@H]1O)C(=O)O [GS-704277]
[1]
  UTS2R activation: no effect on UTS2R activation

B1: urotensin-II (UT2), endogenous peptidic ligand of UTS2R (peptide)
peptide: ETPDCFWKYCV
[2]
  TGFα-shedding assay (AP-TGFα release), untagged UTS2R in HEK293A cells: Emax of receptor activation by UT2 (%AP-TGFα release): 59
  TGFα-shedding assay (AP-TGFα release), untagged UTS2R in HEK293A cells: pEC50 of receptor activation by UT2: 10.7
